Assay results taken from ChEMBL document CHEMBL1129709, “(Hydroxyethyl) sulfonamide HIV-1 Protease inhibitors: Identification of the 2-methylbenzoyl moiety at P-2” (Bioorg Med Chem Lett, 1996).

Tests used:
[1] = molecular target: T1, Human immunodeficiency virus type 1 protease (Human immunodeficiency virus 1, UniProt Q72874); experiment: Inhibitory activity against HIV-1 protease in spectrofluorimetric assay
CCRF-CEM [2] = experiment: Antiviral activity was evaluated against HIV-IIIB strain of HIV-1 in CEM cell culture assay; type: functional, cell-based; conditions: Homo sapiens
[3] = Half-life was evaluated in rats; type: ADME, organism-based; conditions: rat, in vivo
CCRF-CEM [4] = experiment: Toxic dose was evaluated against HIV-IIIB strain of HIV-1 in CEM cell culture assay; conditions: Homo sapiens, CEM cells; read-out: TD50 (the source's name)
[5] = Bioavailability in rat; type: ADME, organism-based; conditions: in vivo
[6] = Maximum concentration was evaluated in rats; type: ADME, organism-based; conditions: rat, in vivo
[7] = molecular target: T1, Human immunodeficiency virus type 1 protease; experiment: Inhibitory activity was evaluated against recombinant HIV-1 protease using spectrofluorimetric assay

Row | EC50 (CCRF-CEM [2]) | SMILES | IC50 [1] | CC50 (CCRF-CEM [4]) | further results
1 |  | COc1ccc(S(=O)(=O)N(CC(C)C)C[C@@H](O)[C@H](Cc2ccccc2)NC(=O)c2ccccc2O)cc1 | 900 nM |  | 
2 | 18 nM | COc1ccc(S(=O)(=O)N(CC(C)C)C[C@@H](O)[C@H](Cc2ccccc2)NC(=O)c2cccc(N)c2C)cc1 |  | > 10000 nM | half-life [3]: 1 h; bioavailability [5]: 54%; Cmax [6]: 1800 ng/mL
3 |  | COc1ccc(S(=O)(=O)N(CC(C)C)C[C@@H](O)[C@H](Cc2ccccc2)NC(=O)c2cccc(C)c2)cc1 | 27 nM |  | 
4 |  | COc1ccc(S(=O)(=O)N(CC(C)C)C[C@@H](O)[C@H](Cc2ccccc2)NC(=O)c2cc(O)ccc2C)cc1 |  | > 10000 nM | IC50 [7]: 40 nM
5 |  | COc1ccc(S(=O)(=O)N(CC(C)C)C[C@@H](O)[C@H](Cc2ccccc2)NC(=O)c2ccc(C)cc2)cc1 | 15 nM |  | 
6 | 18 nM | COc1ccc(S(=O)(=O)N(CC(C)C)C[C@@H](O)[C@H](Cc2ccccc2)NC(=O)c2ccc(N)cc2C)cc1 |  |  | 
7 | 7 nM | COc1ccc(S(=O)(=O)N(CC(C)C)C[C@@H](O)[C@H](Cc2ccccc2)NC(=O)c2cccc(O)c2C)cc1 |  | > 10000 nM | half-life [3]: 1 h; bioavailability [5]: 12%; Cmax [6]: 270 ng/mL
8 |  | COc1ccc(S(=O)(=O)N(CC(C)C)C[C@@H](O)[C@H](Cc2ccccc2)NC(=O)c2ccccc2C(F)(F)F)cc1 | 37 nM |  | 
9 |  | COc1ccc(S(=O)(=O)N(CC(C)C)C[C@@H](O)[C@H](Cc2ccccc2)NC(=O)c2ccccc2C(C)C)cc1 | 49 nM |  | 
10 | 82 nM | COc1ccc(S(=O)(=O)N(CC(C)C)C[C@@H](O)[C@H](Cc2ccccc2)NC(=O)c2cc(N)ccc2C)cc1 |  | > 10000 nM | 
11 | 200 nM | COc1ccc(S(=O)(=O)N(CC(C)C)C[C@@H](O)[C@H](Cc2ccccc2)NC(=O)c2ccccc2C)cc1 |  |  | 

Row | SMILES | EC50 (CCRF-CEM [2]) | IC50 [1] | CC50 (CCRF-CEM [4]) | further results
12 | COc1ccc(S(=O)(=O)N(CC(C)C)C[C@@H](O)[C@H](Cc2ccccc2)NC(=O)c2ccc(O)cc2C)cc1 | 9 nM |  | > 10000 nM | IC50 [7]: 5 nM
